The values below come from patent publication US20210268075A1, “PHARMACEUTICAL COMPOSITION AND METHOD OF TREATMENT USING SERRATIOPEPTIDASE, MANNOSE OR ITS DERIVATIVE, AND OPTIONALLY ANTINFECTION AGENTS” (priority 2020, published 2021).

The test concerns E. Coli ATCC 8739. Put plainly: In vitro suppression of bacterial growth from a biofilm on a plastic thread (transmittance of medium at 590 nm). The class given is cell-based. The note with it: 7 hours with Solution F/P, higher transmittance = less bacterial growth.

Procedure: 1 ml of Stock E. Coli ATCC 8739 (Culture Count 10×10^8 CFU/ml) was diluted to 10 ml with buffered peptone water with NaCl. The 1 ml of resulting culture (10×10^7 CFU/ml) was diluted to 10 ml with buffered peptone water with NaCl to make E. Coli Culture (10×10^6 CFU/ml)
On first day 6 PM, Five (5) sterile test tubes were added with 50 ml of sterile Soybean Casein Digest Medium. These medium were inoculated with 1 ml of E. Coli culture (10×10^6 CFU/ml @ 6 PM. A thin plastic thread (0.1 mm OD) of the same length were suspended from the middle of all 5 test tubes and keep in overnight (17 hours) at 30° C.-35° C. • 2. On second day 11 AM, another Five (5) sterile test tubes were added with 50 ml of sterile Soybean Casein Digest Medium and 500 mg of Glucose. • a. 1 ml of Solution F (D-mannose solution) was added to test tube 1. • b. 1 ml of Solution P (Serrapeptidase solution) was added to test tube 2. • c. 1 ml of Solution F (D-Mannose solution) and 1 ml of Solution P (Serrapeptidase solution) was added to test tube 3.
The thin plastic thread was transferred from old test tube to new test tube on second day 11 AM. All 5 test tubes were kept at 30° C.-35° C. for 7 hours. • 3. On second day 6 PM, another Five (5) sterile test tubes were added with 50 ml of Sterile Soybean Casein Digest Medium. Transfer the thin plastic thread from old test tube to new test tube on second day at 6 PM. […]

On to `O=C1CN(/N=C/c2ccc([N+](=O)[O-])o2)C(=O)N1` [A (Antibiotic), Nitrofurantoin Anhydrous], for which the “transmittance of test tube medium at 590 nm” value (Procedure 2: thick plastic thread (0.5 mm OD), then 1 ml Solution A overnight (17 hours) at 30-35° C.) came out at 6.9.

As to `O=C1CN(/N=C/c2ccc([N+](=O)[O-])o2)C(=O)N1` [A^dil (Diluted Antibiotic), Nitrofurantoin Anhydrous], where the note is “Procedure 1: thin plastic thread (0.1 mm OD), overnight in fresh medium, then 1 ml Solution A^dil for 7 hours at 30-35° C.”, the “transmittance of test tube medium at 590 nm” value was 8.4.
